In US5298626A, “Select cyclopent[b]indoles” (priority 1992, dated 1994):
Where “and” joins values, the source holds several entries; their conditions need not be identical. Equal entries are not always repeated. Where two headings read alike, the source gives them in different places.

Key:
α2-receptor = test: 3H-Clonidine Binding: α2-Receptor; parameters: species or system rat (male Wistar); details: 3 nM 3H-clonidine, rat cortical tissue, pH 7.7
Method: See references 1, 2 and 3 cited below. The interaction of a compound with central α2 -receptors is assessed in the ^3 H-clonidine binding assay.
2. Tris buffer containing physiological ions
3. [4-^3 H]-Clonidine hydrochloride (20-30 Ci/mmol) is obtained from New England Nuclear.
4. Clonidine-HCl is obtained from Boehringer Ingelheim. A stock solution of 0.1 mM clonidine is made up to determine nonspecific binding. This yields a final concentration of 1 μM in the assay (20 μl to 2 ml).
Male Wistar rats are sacrificed by decapitation and the cortical tissue rapidly dissected. The tissue is homogenized in 50 volumes of 0.05M Tris buffer, pH 7.7 (buffer 1b) with the Brinkman Polytron, then centrifuged at 40,000 g for 15 minutes. The supernatant is discarded and the pellet re-homogenized in the original volume of 0.05M Tris buffer, pH 7.7 and re-centrifuged as before. The supernate is discarded and the final pellet re-homogenized in 50 volumes of buffer 2b. This tissue suspension is then stored on ice. The final tissue concentration is […]. Specific binding is 1% of the total added ligand and 80% of total bound ligand.
100 μl--0.5M Tris-physiological salts, pH 7.7 (buffer 2a)
20 μl--Vehicle (for total binding) or 0. 1 mM clonidine (for nonspecific binding) or appropriate drug concentration
50 μl--^3 H-clonidine stock
1000 μl tissue suspension
Tissue homogenates are incubated for 20 minutes at […] with 3 nM 3 H-clonidine and varying drug concentrations, and thereafter immediately filtered under reduced pressure on Whatman GF/B filters. The filters are washed with three five ml volumes of ice-cold 0.05M Tris buffer, pH 7.7, and thereafter transferred to scintillation vials. Ten ml of Liquiscint counting solution is added to each sample which is then counted by liquid scintillation spectroscopy. Specific clonidine binding is defined as the difference between total bound and […]. The percent inhibition at each drug concentration is the mean of triplicate determinations.

MAO-B = biological target: T1, MAO-B (Rattus norvegicus, UniProt P19643); test: biochemical; parameters: species or system rat (male Wistar)
T1 construct: served as the tissue source for mitochondrial MAO; from tissue; host or cells: whole brain minus cerebellum of male Wistar rats, P2 pellet (18,000 g)
T1 sequence (P19643 1-520): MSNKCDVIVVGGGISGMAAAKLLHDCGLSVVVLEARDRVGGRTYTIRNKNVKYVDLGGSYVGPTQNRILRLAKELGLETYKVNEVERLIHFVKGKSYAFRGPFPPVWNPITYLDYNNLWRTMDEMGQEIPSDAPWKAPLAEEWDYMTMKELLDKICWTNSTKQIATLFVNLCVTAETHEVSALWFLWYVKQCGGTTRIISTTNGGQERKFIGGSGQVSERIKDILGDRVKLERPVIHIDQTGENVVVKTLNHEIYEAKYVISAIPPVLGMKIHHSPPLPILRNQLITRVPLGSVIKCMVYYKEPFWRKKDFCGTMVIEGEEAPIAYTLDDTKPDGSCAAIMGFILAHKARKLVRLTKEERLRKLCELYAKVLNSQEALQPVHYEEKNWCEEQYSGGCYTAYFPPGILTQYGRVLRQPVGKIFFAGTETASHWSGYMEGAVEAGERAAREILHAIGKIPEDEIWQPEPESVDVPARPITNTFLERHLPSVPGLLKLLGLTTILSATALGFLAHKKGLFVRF
Method: Activity in Rat Brain Synaptosomes
(§1) To determine the selective inhibition of the two forms of monoamine oxidase (MAO).
Although various methods for measuring MAO activity are available, the described method involves the extraction of the radiolabeled deaminated metabolites of [^3 H]-5HT or [^14 C]-β-phenethylamine. This procedure allows MAO-A and MAO-B activities to be measured either simultaneously or individually (3).
A 5 mM stock solution is made up in 0.01N HCl. This is used to dilute the specific activity of the [^14 C]-PEA. b. β-[ethyl-1-^14 C]-phenethylaminehydrochloride(40-50 mCi/mmol) is obtained from New England Nuclear. c. Add 12 μl of [^14 C]-PEA to 2 ml of the 5 mM PEA solution. (Final amine concentration in the assay is 200 μM: see below.)
Equal amounts of MAO-A (5HT) and MAO-B (PEA) substrates are combined for simultaneously testing both MAO types, i.e. mixed stock solution of 2.5 mM 5HT and 2.5 mM PEA, 40 μl of this mixed solution gives a 200 μM final concentration of each amine in the assay. When testing only one MAO type, the individual 5 mM stock solutions must be diluted 1: 1 with distilled water prior to adding 40 μl to the incubation mixture; i.e., same 200 μM final amine concentration.
(§2) Male Wistar rats weighting 15-250 grams were sacrificed an removed. Whole brain minus cerebellum was homogenized in 30 volumes of ice-cold, phosphate-buffered 0.25M sucrose, using a Potter-Elvejhem homogenizer. The homogenate as centrifuged at 1000 g for 10 minutes and the supernatant (S1) decanted and recentifuged at 18,000 g for 20 minutes. […]
(§3) Tubes are preincubated for 15 minutes at 37° C. and the assay is started by adding 40 μl of combined substrate ([^3 H]-5HT and [^14 C]-PEA) at 15 second intervals. […] Tissue blank values are determined by adding the acid before the radioactive substrate. […] 10 ml of Liquiscint is added and the samples are counted using window settings for in ^14 C in one channel and ^3 H in the second channel. IC50 values are determined by log-probit analysis.

MAO-A = biological target: T2, MAO-A (Rattus norvegicus, UniProt P21396); test: biochemical; parameters: species or system rat (male Wistar)
T2 construct: served as the tissue source for mitochondrial MAO; from tissue; host or cells: whole brain minus cerebellum of male Wistar rats, P2 pellet (18,000 g)
T2 sequence (P21396 1-526): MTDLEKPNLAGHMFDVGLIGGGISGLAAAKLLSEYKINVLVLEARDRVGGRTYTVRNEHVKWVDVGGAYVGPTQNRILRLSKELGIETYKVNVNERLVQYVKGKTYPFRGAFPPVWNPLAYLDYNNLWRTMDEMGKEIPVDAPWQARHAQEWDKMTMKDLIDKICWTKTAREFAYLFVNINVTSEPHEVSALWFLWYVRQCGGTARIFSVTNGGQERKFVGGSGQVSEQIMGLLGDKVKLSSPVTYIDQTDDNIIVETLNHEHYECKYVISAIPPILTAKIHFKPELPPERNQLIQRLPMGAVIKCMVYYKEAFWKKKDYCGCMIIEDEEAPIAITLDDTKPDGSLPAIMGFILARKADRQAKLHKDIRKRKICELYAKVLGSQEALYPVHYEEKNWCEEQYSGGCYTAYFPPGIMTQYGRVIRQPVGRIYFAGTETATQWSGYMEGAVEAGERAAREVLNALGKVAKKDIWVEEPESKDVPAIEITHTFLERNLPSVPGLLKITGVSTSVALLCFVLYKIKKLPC
Method: Inhibition of Type A and Type B Monoamine Oxidase
Activity in Rat Brain Synaptosomes
as §1
Although various methods for measuring MAO activity are available, the described method involves the extraction of the radiolabeled deaminated metabolites of [^3 H]-5HT or [^14 C]-β-phenethylamine.
a. Serotonin creatine SO4 (5HT) is obtained from Sigma Chemical Company. A 5 mM stock solution is made up in 0.01N HCl. This is used to dilute the specific activity of the [^3 H]-5HT. b. [^3 H]-5-Hydroxytryptamine binoxalate (20-30 Ci/mmol) is obtained from New England Nuclear. c. Add 12 μl of [^3 H]-5HT to 2 ml of the 5 mM 5HT solution. (Final amine concentration in the assay is 200 μM: see below.)
5. Equal amounts of MAO-A (5HT) and MAO-B (PEA) substrates are combined for simultaneously testing both MAO types, i.e. mixed stock solution of 2.5 mM 5HT and 2.5 mM PEA, 40 μl of this mixed solution gives a 200 μM final concentration of each amine in the assay. When testing only one MAO type, the individual 5 mM stock solutions must be diluted 1: 1 with distilled water prior to adding 40 μl to the incubation mixture; i.e., same 200 μM final amine concentration.
as §2, §3

[1] = biological target: T3, Brain AChE (acetylcholinesterase) (Rattus norvegicus, UniProt P37136); test: biochemical; parameters: species or system rat (male Wistar); details: rat striatum, read-out: Inhibitory Concentration, IC50
T3 construct: corpora striata dissected free, weighed and homogenized in 19 volumes; from tissue; host or cells: corpora striata of male Wistar rats, whole homogenate
T3 sequence (P37136 32-614): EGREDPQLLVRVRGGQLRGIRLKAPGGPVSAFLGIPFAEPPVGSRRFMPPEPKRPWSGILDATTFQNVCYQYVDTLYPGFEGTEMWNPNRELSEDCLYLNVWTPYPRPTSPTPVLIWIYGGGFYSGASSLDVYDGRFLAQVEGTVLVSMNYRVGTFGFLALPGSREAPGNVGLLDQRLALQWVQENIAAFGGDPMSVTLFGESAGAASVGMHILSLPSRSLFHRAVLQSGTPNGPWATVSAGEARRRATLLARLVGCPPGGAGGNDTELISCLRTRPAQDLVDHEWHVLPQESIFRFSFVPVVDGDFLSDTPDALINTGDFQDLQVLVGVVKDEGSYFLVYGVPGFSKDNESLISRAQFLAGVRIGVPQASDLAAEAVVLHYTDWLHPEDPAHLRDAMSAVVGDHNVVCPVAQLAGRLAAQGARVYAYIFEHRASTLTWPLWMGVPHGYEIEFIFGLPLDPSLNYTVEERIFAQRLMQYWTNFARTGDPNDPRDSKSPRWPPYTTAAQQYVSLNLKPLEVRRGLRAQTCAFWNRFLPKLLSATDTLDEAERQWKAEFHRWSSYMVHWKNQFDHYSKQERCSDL
Method: Cholinesterases are found throughout the body, both in the brain and in serum.
In Vitro Inhibition of Acetylcholinesterase Activity in Rat Striatum
The method described below was used in this invention for assaying cholinesterase activity. This is a modification of the method of Ellman et al., Biochem. Pharmacol. 7, 88 (1961).
1. 0.05M Phosphate buffer, pH 7.2
4. A 2 mM stock solution of the test drug is made up in a suitable solvent and q.s. to volume with 0.5 mM DTNB (reagent 3). […] If active, IC50 values are determined from the inhibitory activity of subsequent concentrations.
Male Wistar rats are decapitated, brains rapidly removed, corpora striata dissected free, weighed and homogenized in 19 volumes (approximately 7 mg protein/ml) of 0.05M phosphate buffer, pH 7.2 using a Potter-Elvehjem homogenizer.
Enzyme activity is measured with the Beckman DU-50 spectrophotometer. This method can be used for IC50 determinations and for measuring kinetic constants.
Blank values are determined for each run to control for non-enzymatic hydrolysis of substrate and these values are automatically subtracted by the kindata program available on kinetics soft-pac module. This program also calculates the rate of absorbance change for each cuvette.
Substrate concentration is 10 mM diluted 1:2 in assay yielding final concentration of 5 mM. […] IC50 values are calculated from log-probit analysis

[2] = system: Scopolamine Induced Memory Deficit; format: in vivo, mice
Method: In this assay mice are tested for their ability to remember an unpleasant stimulus for a period of 24 hours. A mouse is placed in a chamber that contains a dark compartment; a strong incandescent light drives it to the dark compartment, where an electric shock is administered through metal plates on the floor. The animal is removed from the testing apparatus and tested again, 24 hours later, for the ability to remember the electric shock.
If scopolamine, an anticholinergic that is known to cause memory impairment, is administered before an animal's initial exposure to the test chamber, the animal re-enters the dark compartment shortly after being placed in the test chamber 24 hours later. This effect of scopolamine is blocked by an active test compound, resulting in a greater interval before re-entry into the dark compartment.
The results for an active compound are expressed as the percent of a group of animals in which the effect of scopolamine is blocked, as manifested by an increased interval between being placed in the test chamber and re-entering the dark compartment.

[3] = system: monoamine oxidase type A and type B; details: literature, reference (2); cited from earlier work

NC1CCC2c3ccccc3NC12 (stereo not shown) [1,2,3,3a,4,8b-Hexahydrocyclopent[b]indol-3-amine 2-naphthalene sulfonate hemihydrate]
IC50 (α2-receptor): 1.27 µM

C#CCNC1CCc2c1[nH]c1ccccc21 (stereo not shown) [1,2,3,4-Tetrahydrocyclopent[b]indol-3-(2-propynyl)amine]
IC50 (MAO-B; substrate [14C]-PEA, 200 μM, read-out: Inhibitory Concentration - IC50, MAO-B): 0.32 µM
IC50 (MAO-A; substrate [3H]-5HT, 200 μM, read-out: Inhibitory Concentration - IC50, MAO-A): 0.29 µM

CNC(=O)Oc1ccc2c(c1)c1c(n2C)C(NC2CC2)CC1 (stereo not shown) [3-(N-Cyclopropyl)amino-4-methyl-1,2,3,4-tetrahydrocyclopent[b]indol-7-yl methylcarbamate]
IC50 (MAO-B): 0.42 µM
IC50 [1]: 3.5 µM
% of Animals with Scopolamine Induced Memory Deficit Reversal ([2]; 0.63 mg/kg of body weight, s.c., retest at 24 hours): 27%
% of Animals with Scopolamine Induced Memory Deficit Reversal ([2]; 2.5 mg/kg of body weight, s.c., retest at 24 hours): 33%
IC50 (MAO-A): 0.32 µM

CNC(=O)Oc1ccc2c(c1)c1c(n2C)C(=NC2CC2c2ccccc2)CC1 (stereo not shown) [4-Methyl-3-[(2-phenylcyclopropyl)imino]-1,2,3,4-tetrahydrocyclopent[b]indol-7-yl methylcarbamate]
IC50 (MAO-B): 3.7 µM
IC50 (MAO-A): 15.2 µM

Cn1c2c(c3ccccc31)CCC2N (stereo not shown) [4-methyl-1,2,3,4-tetrahydrocyclopent[b]indol-3-amine]
IC50 (α2-receptor): 1.49 µM

CNC(=O)Oc1ccc2c(c1)c1c(n2C)C(NCc2ccccc2)CC1 (stereo not shown) [4-methyl-3-phenylmethylamino-1,2,3,4-tetrahydrocyclopent[b]indol-7-yl methylcarbamate]
IC50 [1]: 1.1 µM and 6.2 µM

Cn1c2c(c3cc(O)ccc31)CCC2=NCc1ccccc1 [4-methyl-3-phenylmethylimino-1,2,3,4-tetrahydrocyclopent[b]indol-7-ol]
IC50 (α2-receptor): 0.85 µM

CN(C)CCC=C1c2ccccc2CCc2ccccc21 [Amitriptyline, reference compound]
IC50 (α2-receptor): 3.9 µM

C#CCN(C)CCCOc1ccc(Cl)cc1Cl [Clorgyline]
selectivity for type A / type B monoamine oxidase [3]: selective inhibitor of the type A enzyme

CC[C@@H]1C(=O)OC[C@@H]1Cc1cncn1C [Pilocarpine, reference compound]
% of Animals with Scopolamine Induced Memory Deficit Reversal ([2]; 5.0 mg/kg of body weight, s.c., retest at 24 hours): 13%

Nc1c2c(nc3ccccc13)CCCC2 [Tacrine, reference compound]
% of Animals with Scopolamine Induced Memory Deficit Reversal ([2]; mouse, in vivo): 13%

CC(C)NNC(=O)c1ccncc1 [iproniazid]
selectivity for type A / type B monoamine oxidase [3]: nonselective inhibitors

C#CCN(C)Cc1ccccc1 [pargyline]
selectivity for type A / type B monoamine oxidase [3]: selective inhibitors of the type B enzyme
